# Measured values taken from patent publication US11767316B2, “Non-fused thiophene derivatives and their uses” (ENYO PHARMA, priority 2018, dated 2023).
# Experiments:
# Type in all cases: cell-based
# [1] = tested on: H1N1 (influenza A/New Caledonia/20/99); experiment: Antiviral effect on A549 cells infected with H1N1 (MUNANA neuraminidase readout); settings: H1N1 A/New Caledonia/20/99 at MOI 0.1, 48 h post-infection, MUNANA fluorescence, read-out: IC50
# Protocol: The antiviral effect of the compounds of the invention have been tested on A549 cell lines infected with H1N1 (influenza A/New Caledonia/20/99).
# Human A549 cells (80,000 cells/well in a 96 well plate) were treated with a range of concentration of test compounds and immediately infected by H1N1 A/New Caledonia/20/99 virus (clinical isolate) at MOI of 0.1 in DMEM/1% Penicillin/streptomycin supplemented with 0.25 μg/ml TPCK trypsin (Sigma) and incubated at 37° C. in 5% CO2. 48 h post-infection, supernatants (25 μl) were collected and transferred into a 96-well black flat-bottom plate, mixed with 25 μl PBS with Ca++/Mg++(Thermo Fisher) and 50 μl of 2′-(4-Methylumbelliferyl)-α-D-N-acetylneuraminic acid sodium salt hydrate stock-solution (20 μM, MUNANA, Sigma). Plates were incubated 1 h at 37° C. and reaction is stopped by adding 100 μl of Stop Solution (glycine 0.1 M pH10.7/25% ethanol). The amount of fluorescent product released by MUNANA hydrolysis (4-MU) was measured in a Tecan spectrophotometer with excitation and emission wavelengths of 365 and 450 nm respectively.
# MMXF L-363 = experiment: Cytotoxicity, propidium iodide based monolayer assay, MMXF L-363; settings: Homo sapiens, 96 h; MMXF L-363 (multiple myeloma), four days of treatment, T/C=50%; read-out: Absolute IC50
# Protocol: (§1) The cytotoxicity was tested for compounds of the invention on five different cell-lines, namely LXFL 1121, MAXF 401, MMXF L-636, PRXF PC-3M and UXF 1138 which are respectively lung large cell carcinoma, breast adeno carcinoma, multiple myeloma, prostate adeno carcinoma and uterine sarcoma.
# (§2) A working stock solution of the test compounds was prepared in DMSO at a concentration of 33 mM or 8.25 mM, and small aliquots were stored at −20° C. On each day of an experiment, a frozen aliquot of the working stock solution was thawed and stored at room temperature prior to and during treatment.
# (§3) All liquid handling steps were performed using the Tecan Freedom EVO 200 platform. First, serial 2-fold dilutions of the 33 mM DMSO working stock solution were done in DMSO. […]
# (§4) A modified propidium iodide (PI) based monolayer assay was used to assess the anti-cancer activity of the compounds. Briefly, cells were harvested from exponential phase cultures, counted and plated in 96 well flat-bottom microtiter plates at a cell density of 4,000 to 40,000 cells/well dependent on the cell line's growth rate. […] After an incubation period of 1-2 hours at room temperature, fluorescence (FU) was measured using the Enspire Multimode Plate Reader (excitation λ=530 nm, emission λ=620 nm) to quantify the amount of attached viable cells. […]
# PRXF PC-3M = experiment: Cytotoxicity, propidium iodide based monolayer assay, PRXF PC-3M; settings: Homo sapiens, 96 h; PRXF PC-3M (prostate adeno carcinoma), four days of treatment, T/C=50%; read-out: Absolute IC50
# Protocol: as §1, §2, §3, §4
structure (smiles),measurement,setting,value
O=C(Nc1scc(C2CCc3ccccc3C2)c1C(=O)O)c1ccccc1 (stereo not drawn) [#16],IC50,[1],11.1 nM
same,IC50,MMXF L-363,357 nM
same,IC50,PRXF PC-3M,485 nM
